In patent publication US20240165114A1, “TREATMENT OF DIABETIC NEPHROPATHY WITH AN sGC STIMULATOR” (Cyclerion Therapeutics, Inc., priority 2019, published 2024):

System: adult patients with type 2 diabetes mellitus with albuminuria
Assay: Phase 2 study: change from baseline in urine albumin to creatinine ratio (UACR)
Format: in vivo, human
Conditions: for Between PRL and PBO Group Geometric Mean % Change UACR from Baseline: placebo adjusted; for UACR: Mean CFB at Weeks 8 & 12, Placebo Adjusted / UACR: Mean CFB at Weeks 8 & 12, Within Group: text b231-232 says Week 12
Text: A Multicenter, Randomized, Double-blind, Placebo-controlled, Phase2 Study to Evaluate the Safety and Efficacy of IW-1973 in Patients with Type 2 Diabetes with Albuminuria Treated with Renin-Angiotensin System Inhibitors
The primary objectives of this clinical study (Clinical Trials.gov Identifier NCT03217591) were to assess the safety and tolerability and to evaluate the effect of oral IW-1973 on renal function when administered daily for approximately 12 weeks to adult patients with type 2 diabetes mellitus with albuminuria who were on a stable regimen of renin-angiotensin system inhibitors ([…] or ARBs).
The primary efficacy endpoint of this trial was the change from baseline in Urine Albumin to Creatinine Ratio (UACR) at Weeks 8 and 12. UACR was determined as the concentration of urine albumin [mg/dL] divided by the concentration of urine creatinine [g/dL]) from urinalysis. First morning void urine samples were collected. To reduce variability, the measurement of UACR was the average of 2-first morning void tests at each timepoint.
This multicenter, randomized, double-blind, placebo-controlled, parallel-group study evaluated 2 dose levels of IW-1973 compared with placebo. The study population consisted of adult patients with type 2 diabetes mellitus, albuminuria, and impaired renal function. Patients had to have been taking antihyperglycemic medications for at least 12 weeks with their regimen being stable (ie, drug and dose) for at least 28 days before the Randomization Visit. Additionally, patients had to have been on a stable regimen of angiotensin-converting enzyme inhibitor (ACEi) or an angiotensin receptor blocker (ARB), for at least 28 days before the Randomization Visit. For more details, see Inclusion Criteria below. A total of 156 patients (approximately 50 patients per arm) were stratified by baseline estimated glomerular filtration rate (eGFR) into three groups: eGFR 30 to 45, >45 to 60, and >60 to 75 mL/min/1.73 m^2) and randomized approximately 1:1:1 to total daily 20 mg IW-1973, 40 mg IW-1973, or placebo.
Treatment Period: The Treatment Period began on Day 1 at Randomization (there was no Day 0) and ended after the End of Treatment Visit on Day 87 (±3). Patients were stratified in one of three groups by baseline eGFR (ie, eGFR 30 to 45, >45 to 60, and >60 to 75 mL/min/1.73 m2) and randomized in an approximate1:1:1 ratio to receive 20 mg IW-1973, 40 mg IW-1973, or placebo for approximately 12 weeks.
Dosing on Days 1 to 7 (±1) was BID (twice daily), morning and evening; dosing on Day 8 (±1) and onward was QD (once daily), 2 tablets in the morning. At the Randomization Visit on Day 1, patients received their morning dose of study drug in the clinic and underwent safety, efficacy, and pharmacokinetic (PK) assessments, including blood and urine collections at prespecified times. Patients stayed in the clinic at least 6 hours postdose and were able to leave the clinic at the Investigator's discretion following all study procedures. At the Week 1 Visit on Day 8 (±1), patients returned to the clinic and received their first QD dose of study drug in the clinic. Patients underwent safety, efficacy, and PK assessments, including blood and urine collections at prespecified times. Patients stayed in the clinic at least 6 hours postdose and were able to leave the clinic at the Investigator's discretion following all study procedures. At the Week 4 (Day 29±3), Week 8 (Day 57±3), and End of Treatment (Day 87±3) Visits, patients returned to the clinic for study drug administration; safety, efficacy, and PK assessments; and study drug supply, if applicable.
One week at 10 mg BID followed by 20 mg QD for the remainder of the trial, i.e., a 20 mg total daily dosage; or
One week at 20 mg BID, followed by 40 mg QD for the remainder of the trial, i.e., a 40 mg total daily dosage.

[1] = ITT, Week 12, PRL 20 mg total daily
[2] = ITT, Week 12, PRL 40 mg total daily
[3] = ITT, Weeks 8 & 12, PRL 20 mg total daily

Question: With `OC(CNc1nc(-c2cc(-c3ccon3)n(Cc3ccccc3F)n2)ncc1F)(C(F)(F)F)C(F)(F)F` [Compound I, praliciguat] as the molecule, how does the “Within Group Geometric Mean % Change UACR from Baseline” value [1] read?
Answer: The value was −35.2%.

Question: What about the “Between PRL and PBO Group Geometric Mean % Change UACR from Baseline” value [1] of the same molecule?
Answer: The value was −23.9%.

Question: And the “Within Group Geometric Mean % Change UACR from Baseline” value [2]?
Answer: Its value is −26.4%.

Question: What about the “Between PRL and PBO Group Geometric Mean % Change UACR from Baseline” value [2] of the same molecule?
Answer: Its value is −13.6%.

Question: What about the “Within Group Geometric Mean % Change UACR from Baseline” value (ITT, Week 12, PRL Combined) of the same molecule?
Answer: The value was −30.9%.

Question: What about the “Between PRL and PBO Group Geometric Mean % Change UACR from Baseline” value (ITT, Week 12, PRL Combined) of the same molecule?
Answer: Its value is −18.9%.

Question: And the “Within Group Geometric Mean % Change UACR from Baseline” value [3]?
Answer: Its value is −28.4%.

Question: What about the “Between PRL and PBO Group Geometric Mean % Change UACR from Baseline” value [3] of the same molecule?
Answer: The value was −16.0%.

Question: And the “Within Group Geometric Mean % Change UACR from Baseline” value (ITT, Weeks 8 & 12, PRL 40 mg total daily)?
Answer: Its value is −27.3%.

Question: And the “Within Group Geometric Mean % Change UACR from Baseline” value (ITT, Weeks 8 & 12, PRL Combined (20 and 40 mg))?
Answer: The value was −27.8%.

Question: And the “placebo-adjusted reduction (mean percent decrease) from baseline in UACR” value (ITT, combined praliciguat groups, Weeks 8 and 12)?
Answer: Its value is 15%.

Question: What about the “reduction from baseline in UACR” value (ITT, combined praliciguat groups, over 12 weeks (weeks 8 and 12)) of the same molecule?
Answer: The value was 28%.

Question: And the “UACR Mean % CFB at Weeks 8 & 12, Placebo Adjusted” value (shortened to “UACR Mean % CFB … Placebo Adjusted”) (mITT Population, PRL 20 mg)?
Answer: Its value is −14.8%.

Question: What about the “UACR Mean % CFB at Weeks 8 & 12, Within Group” value (from here on “UACR Mean % CFB … Within Group”) (mITT Population, PRL 20 mg) of the same molecule?
Answer: The value was −18.4%.

Question: What about the “UACR: Mean CFB at Weeks 8 & 12, Placebo Adjusted” value (“UACR: Mean CFB … Placebo Adjusted” for short) (mITT Population, PRL 20 mg) of the same molecule?
Answer: The value was −21.5%.

Question: What about the “UACR: Mean CFB at Weeks 8 & 12, Within Group” value (“UACR: Mean CFB … Within Group” below) (mITT Population, PRL 20 mg) of the same molecule?
Answer: Its value is −24.7%.

Question: And the “UACR Mean % CFB … Placebo Adjusted” value (mITT Population, PRL 40 mg)?
Answer: Its value is −25.1%.

Question: And the “UACR Mean % CFB … Within Group” value (mITT Population, PRL 40 mg)?
Answer: The value was −28.3%.

Question: What about the “UACR: Mean CFB … Placebo Adjusted” value (mITT Population, PRL 40 mg) of the same molecule?
Answer: The value was −24.2%.

Question: And the “UACR: Mean CFB … Within Group” value (mITT Population, PRL 40 mg)?
Answer: Its value is −27.4%.

Question: What about the “UACR Mean % CFB … Placebo Adjusted” value (mITT Population, PRL Combined) of the same molecule?
Answer: Its value is −20.1%.

Question: And the “UACR Mean % CFB … Within Group” value (mITT Population, PRL Combined)?
Answer: Its value is −23.5%.

Question: And the “UACR: Mean CFB … Placebo Adjusted” value (mITT Population, PRL Combined)?
Answer: Its value is −22.9%.

Question: And the “UACR: Mean CFB … Within Group” value (mITT Population, PRL Combined)?
Answer: The value was −26.1%.

Question: What about the “placebo-adjusted mean percent decrease in UACR” value (mITT Population, combined praliciguat treatment groups, Week 12) of the same molecule?
Answer: The value was 23%.

Question: And the “placebo-adjusted mean percent decrease from baseline in UACR” value (mITT Population, combined praliciguat treatment groups, Weeks 8 and 12)?
Answer: The value was 20%.

Question: What about the “placebo-corrected mean reduction from baseline in UACR” value (mITT, participants with eGFR 30-45 mL/min/1.73 m^2 at baseline, 12-week treatment) of the same molecule?
Answer: The value was 30-40%.
